Results taken from paper PMC5540273, “Progress towards a public chemogenomic set for protein kinases and a call for contributions” (PLoS ONE, 2017).

What follows are molecules tested against T1, CAMK4 (Homo sapiens, UniProt Q16566) (assay: KINOMEscan competition binding). Conditions: read-out: %Inh CAMK4.
T1 sequence (Q16566 1-473): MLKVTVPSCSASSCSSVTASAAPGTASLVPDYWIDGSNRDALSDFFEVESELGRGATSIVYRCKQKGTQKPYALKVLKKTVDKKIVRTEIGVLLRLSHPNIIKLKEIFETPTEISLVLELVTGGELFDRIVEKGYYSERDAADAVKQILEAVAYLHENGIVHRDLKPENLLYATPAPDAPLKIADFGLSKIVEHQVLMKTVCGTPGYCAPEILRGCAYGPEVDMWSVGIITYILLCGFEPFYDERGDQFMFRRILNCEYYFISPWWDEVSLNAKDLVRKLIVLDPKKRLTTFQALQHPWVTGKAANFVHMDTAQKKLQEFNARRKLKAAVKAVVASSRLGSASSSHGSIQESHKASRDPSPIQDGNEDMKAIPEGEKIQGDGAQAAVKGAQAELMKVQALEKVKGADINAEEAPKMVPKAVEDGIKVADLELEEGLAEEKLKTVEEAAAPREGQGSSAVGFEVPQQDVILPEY

In order of rising inhibition at 1 µM:
1. Cn1cc(-c2cnc(N)c3c(-c4ccc5c(c4)CCN5C(=O)Cc4ccccc4)csc23)cn1 [UNC10225012A]  0%
2. CS(=O)(=O)Cc1ccc(Nc2nccc(-c3c(-c4cccc(NC(=O)C5CCCCC5)c4)nn4ncccc34)n2)cc1 [UNC10225159A]  0%
3. COc1cccc(OC)c1C(=O)Nc1cccc(-c2nn3ccccc3c2-c2ccnc(Nc3cccc(F)c3)n2)c1 [UNC10225310A]  0%
4. O=c1cc(N2CCOCC2)nc2n(Cc3cccc(Cl)c3Cl)c(C3CC3)nn12 [UNC10225469A]  5%
5. Cc1ccc(NC(=O)Nc2cccc(C(F)(F)F)c2)cc1 [UNC10225187A]  5%

These molecules were tested against CSNK1D (Homo sapiens, UniProt P48730) (assay: KINOMEscan competition binding). Conditions: read-out: %Inh CSNK1D.
CSNK1D, sequence (P48730 whole entry): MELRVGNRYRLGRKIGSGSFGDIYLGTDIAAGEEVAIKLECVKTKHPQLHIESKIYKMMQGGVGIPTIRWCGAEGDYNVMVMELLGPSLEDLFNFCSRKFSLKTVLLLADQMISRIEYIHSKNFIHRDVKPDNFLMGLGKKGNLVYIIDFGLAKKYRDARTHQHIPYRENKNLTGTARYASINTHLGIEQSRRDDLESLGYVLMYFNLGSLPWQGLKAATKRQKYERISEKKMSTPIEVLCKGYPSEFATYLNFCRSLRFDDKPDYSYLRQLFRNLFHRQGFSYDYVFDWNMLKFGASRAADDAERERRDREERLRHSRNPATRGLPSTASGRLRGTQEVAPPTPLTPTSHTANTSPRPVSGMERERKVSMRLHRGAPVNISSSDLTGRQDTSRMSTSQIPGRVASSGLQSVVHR

In order of rising inhibition at 1 µM:
1. Cn1cc(-c2cnc(N)c3c(-c4ccc5c(c4)CCN5C(=O)Cc4ccccc4)csc23)cn1 [UNC10225012A]  0%
2. CS(=O)(=O)Cc1ccc(Nc2nccc(-c3c(-c4cccc(NC(=O)C5CCCCC5)c4)nn4ncccc34)n2)cc1 [UNC10225159A]  0%
3. Cc1ccc(NC(=O)Nc2cccc(C(F)(F)F)c2)cc1 [UNC10225187A]  0%
4. O=c1cc(N2CCOCC2)nc2n(Cc3cccc(Cl)c3Cl)c(C3CC3)nn12 [UNC10225469A]  7%
5. COc1cccc(OC)c1C(=O)Nc1cccc(-c2nn3ccccc3c2-c2ccnc(Nc3cccc(F)c3)n2)c1 [UNC10225310A]  9%

The molecules below were run against T2, DLK (Homo sapiens, UniProt Q12852) (assay: KINOMEscan competition binding). Conditions: read-out: %Inh DLK.
T2 sequence (Q12852 1-859): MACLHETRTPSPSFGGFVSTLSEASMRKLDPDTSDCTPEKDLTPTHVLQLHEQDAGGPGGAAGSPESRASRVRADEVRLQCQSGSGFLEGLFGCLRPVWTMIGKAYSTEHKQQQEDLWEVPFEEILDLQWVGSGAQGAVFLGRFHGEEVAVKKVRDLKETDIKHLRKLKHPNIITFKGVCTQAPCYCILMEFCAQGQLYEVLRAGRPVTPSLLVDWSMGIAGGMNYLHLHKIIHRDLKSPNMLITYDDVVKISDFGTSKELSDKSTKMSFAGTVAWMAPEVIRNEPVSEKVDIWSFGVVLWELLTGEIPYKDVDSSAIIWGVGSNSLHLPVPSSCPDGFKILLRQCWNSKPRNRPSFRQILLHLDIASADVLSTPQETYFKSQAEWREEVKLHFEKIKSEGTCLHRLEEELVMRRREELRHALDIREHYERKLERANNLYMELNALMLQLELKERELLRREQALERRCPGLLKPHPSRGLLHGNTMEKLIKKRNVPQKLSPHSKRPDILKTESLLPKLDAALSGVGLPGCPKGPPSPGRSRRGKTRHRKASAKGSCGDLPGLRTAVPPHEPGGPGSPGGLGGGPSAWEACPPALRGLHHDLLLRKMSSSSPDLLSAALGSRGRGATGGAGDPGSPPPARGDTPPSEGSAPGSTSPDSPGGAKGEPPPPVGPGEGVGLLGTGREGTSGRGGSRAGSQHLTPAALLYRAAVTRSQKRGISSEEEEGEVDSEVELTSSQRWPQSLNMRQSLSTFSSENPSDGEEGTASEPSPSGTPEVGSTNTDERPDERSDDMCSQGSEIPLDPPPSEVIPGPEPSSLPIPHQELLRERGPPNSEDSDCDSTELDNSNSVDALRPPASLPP

In order of rising inhibition at 1 µM:
1. O=c1cc(N2CCOCC2)nc2n(Cc3cccc(Cl)c3Cl)c(C3CC3)nn12 [UNC10225469A]  0%
2. Cn1cc(-c2cnc(N)c3c(-c4ccc5c(c4)CCN5C(=O)Cc4ccccc4)csc23)cn1 [UNC10225012A]  0%
3. COc1cccc(OC)c1C(=O)Nc1cccc(-c2nn3ccccc3c2-c2ccnc(Nc3cccc(F)c3)n2)c1 [UNC10225310A]  0%
4. Cc1ccc(NC(=O)Nc2cccc(C(F)(F)F)c2)cc1 [UNC10225187A]  0%
5. CS(=O)(=O)Cc1ccc(Nc2nccc(-c3c(-c4cccc(NC(=O)C5CCCCC5)c4)nn4ncccc34)n2)cc1 [UNC10225159A]  41%

What follows are molecules tested against EIF2AK1 (Homo sapiens, UniProt Q9BQI3) (assay: KINOMEscan competition binding). Conditions: read-out: %Inh EIF2AK1.
EIF2AK1, sequence (Q9BQI3 whole entry): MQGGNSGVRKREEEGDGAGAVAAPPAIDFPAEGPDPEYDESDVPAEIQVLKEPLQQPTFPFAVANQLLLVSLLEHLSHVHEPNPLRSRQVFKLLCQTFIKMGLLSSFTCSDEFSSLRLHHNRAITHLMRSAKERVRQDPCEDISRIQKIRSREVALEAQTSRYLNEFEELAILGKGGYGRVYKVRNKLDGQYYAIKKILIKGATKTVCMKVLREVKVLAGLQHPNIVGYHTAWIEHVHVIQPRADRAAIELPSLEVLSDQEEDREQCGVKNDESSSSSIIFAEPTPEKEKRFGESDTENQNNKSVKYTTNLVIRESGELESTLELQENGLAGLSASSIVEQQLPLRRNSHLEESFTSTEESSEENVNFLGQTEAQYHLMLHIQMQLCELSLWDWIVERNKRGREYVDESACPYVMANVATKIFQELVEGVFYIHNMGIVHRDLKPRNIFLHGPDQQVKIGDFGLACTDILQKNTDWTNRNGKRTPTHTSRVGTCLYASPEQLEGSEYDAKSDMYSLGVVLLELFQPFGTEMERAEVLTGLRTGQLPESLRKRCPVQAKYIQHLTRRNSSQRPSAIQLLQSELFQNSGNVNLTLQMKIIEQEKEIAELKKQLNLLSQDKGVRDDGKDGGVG

In order of falling inhibition at 1 µM:
1. CS(=O)(=O)Cc1ccc(Nc2nccc(-c3c(-c4cccc(NC(=O)C5CCCCC5)c4)nn4ncccc34)n2)cc1 [UNC10225159A]  22%
2. Cn1cc(-c2cnc(N)c3c(-c4ccc5c(c4)CCN5C(=O)Cc4ccccc4)csc23)cn1 [UNC10225012A]  7%
3. O=c1cc(N2CCOCC2)nc2n(Cc3cccc(Cl)c3Cl)c(C3CC3)nn12 [UNC10225469A]  0%
4. COc1cccc(OC)c1C(=O)Nc1cccc(-c2nn3ccccc3c2-c2ccnc(Nc3cccc(F)c3)n2)c1 [UNC10225310A]  0%
5. Cc1ccc(NC(=O)Nc2cccc(C(F)(F)F)c2)cc1 [UNC10225187A]  0%

Each molecule was assayed against ERK3 (Homo sapiens, UniProt Q16659) (assay: KINOMEscan competition binding). Conditions: read-out: %Inh ERK3.
ERK3, sequence (Q16659 whole entry): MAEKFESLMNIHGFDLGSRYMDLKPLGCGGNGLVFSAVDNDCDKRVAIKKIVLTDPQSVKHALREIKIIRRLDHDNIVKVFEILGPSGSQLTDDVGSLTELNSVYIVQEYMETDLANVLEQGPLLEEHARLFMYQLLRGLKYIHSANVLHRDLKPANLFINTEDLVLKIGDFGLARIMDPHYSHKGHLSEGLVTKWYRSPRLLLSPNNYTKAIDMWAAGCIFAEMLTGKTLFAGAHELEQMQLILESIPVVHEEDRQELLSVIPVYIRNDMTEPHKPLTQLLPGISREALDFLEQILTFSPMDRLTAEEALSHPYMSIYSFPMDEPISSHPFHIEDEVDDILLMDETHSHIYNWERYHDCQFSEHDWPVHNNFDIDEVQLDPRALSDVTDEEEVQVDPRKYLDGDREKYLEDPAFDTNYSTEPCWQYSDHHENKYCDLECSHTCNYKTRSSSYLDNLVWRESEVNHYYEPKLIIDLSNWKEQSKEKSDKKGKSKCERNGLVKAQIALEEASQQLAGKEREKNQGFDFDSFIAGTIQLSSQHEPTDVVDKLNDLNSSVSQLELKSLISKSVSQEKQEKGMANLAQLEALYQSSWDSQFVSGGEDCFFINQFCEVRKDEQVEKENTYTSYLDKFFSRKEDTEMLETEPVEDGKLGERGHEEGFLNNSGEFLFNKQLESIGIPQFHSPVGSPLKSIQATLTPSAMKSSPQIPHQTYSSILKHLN

In order of falling inhibition at 1 µM:
1. COc1cccc(OC)c1C(=O)Nc1cccc(-c2nn3ccccc3c2-c2ccnc(Nc3cccc(F)c3)n2)c1 [UNC10225310A]  1%
2. O=c1cc(N2CCOCC2)nc2n(Cc3cccc(Cl)c3Cl)c(C3CC3)nn12 [UNC10225469A]  0%
3. Cn1cc(-c2cnc(N)c3c(-c4ccc5c(c4)CCN5C(=O)Cc4ccccc4)csc23)cn1 [UNC10225012A]  0%
4. CS(=O)(=O)Cc1ccc(Nc2nccc(-c3c(-c4cccc(NC(=O)C5CCCCC5)c4)nn4ncccc34)n2)cc1 [UNC10225159A]  0%
5. Cc1ccc(NC(=O)Nc2cccc(C(F)(F)F)c2)cc1 [UNC10225187A]  0%

The molecules below were run against FAK (Homo sapiens, UniProt Q05397) (assay: KINOMEscan competition binding). Conditions: read-out: %Inh FAK.
FAK, sequence (Q05397 whole entry): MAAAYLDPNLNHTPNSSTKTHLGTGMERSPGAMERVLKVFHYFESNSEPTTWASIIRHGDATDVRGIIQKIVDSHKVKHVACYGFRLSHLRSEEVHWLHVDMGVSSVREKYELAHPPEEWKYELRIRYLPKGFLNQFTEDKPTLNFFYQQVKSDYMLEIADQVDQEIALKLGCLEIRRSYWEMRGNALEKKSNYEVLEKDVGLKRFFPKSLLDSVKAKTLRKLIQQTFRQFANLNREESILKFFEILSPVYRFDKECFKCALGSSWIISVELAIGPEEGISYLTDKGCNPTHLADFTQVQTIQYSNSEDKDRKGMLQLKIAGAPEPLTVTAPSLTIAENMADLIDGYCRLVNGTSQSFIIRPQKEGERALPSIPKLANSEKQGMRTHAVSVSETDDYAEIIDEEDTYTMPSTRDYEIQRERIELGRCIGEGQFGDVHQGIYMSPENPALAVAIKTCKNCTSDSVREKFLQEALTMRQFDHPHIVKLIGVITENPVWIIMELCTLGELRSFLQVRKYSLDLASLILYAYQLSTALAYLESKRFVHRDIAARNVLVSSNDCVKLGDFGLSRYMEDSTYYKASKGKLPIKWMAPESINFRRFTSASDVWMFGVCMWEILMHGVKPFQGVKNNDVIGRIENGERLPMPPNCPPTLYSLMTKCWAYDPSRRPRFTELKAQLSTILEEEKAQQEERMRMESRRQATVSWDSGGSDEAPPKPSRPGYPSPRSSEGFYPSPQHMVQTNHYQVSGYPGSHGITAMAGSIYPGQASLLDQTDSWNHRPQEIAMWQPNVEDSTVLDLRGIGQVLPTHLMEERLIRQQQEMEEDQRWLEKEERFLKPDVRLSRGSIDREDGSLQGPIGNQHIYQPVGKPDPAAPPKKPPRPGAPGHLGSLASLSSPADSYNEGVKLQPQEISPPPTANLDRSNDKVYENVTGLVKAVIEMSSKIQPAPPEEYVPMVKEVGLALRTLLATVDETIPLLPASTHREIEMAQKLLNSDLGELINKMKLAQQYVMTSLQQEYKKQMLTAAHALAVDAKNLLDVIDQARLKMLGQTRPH

In order of rising inhibition at 1 µM:
1. O=c1cc(N2CCOCC2)nc2n(Cc3cccc(Cl)c3Cl)c(C3CC3)nn12 [UNC10225469A]  0%
2. CS(=O)(=O)Cc1ccc(Nc2nccc(-c3c(-c4cccc(NC(=O)C5CCCCC5)c4)nn4ncccc34)n2)cc1 [UNC10225159A]  0%
3. COc1cccc(OC)c1C(=O)Nc1cccc(-c2nn3ccccc3c2-c2ccnc(Nc3cccc(F)c3)n2)c1 [UNC10225310A]  1%
4. Cc1ccc(NC(=O)Nc2cccc(C(F)(F)F)c2)cc1 [UNC10225187A]  1%
5. Cn1cc(-c2cnc(N)c3c(-c4ccc5c(c4)CCN5C(=O)Cc4ccccc4)csc23)cn1 [UNC10225012A]  7%

These molecules were tested against HPK1 (Homo sapiens, UniProt Q92918) (assay: KINOMEscan competition binding). Conditions: read-out: %Inh HPK1.
HPK1, sequence (Q92918 whole entry): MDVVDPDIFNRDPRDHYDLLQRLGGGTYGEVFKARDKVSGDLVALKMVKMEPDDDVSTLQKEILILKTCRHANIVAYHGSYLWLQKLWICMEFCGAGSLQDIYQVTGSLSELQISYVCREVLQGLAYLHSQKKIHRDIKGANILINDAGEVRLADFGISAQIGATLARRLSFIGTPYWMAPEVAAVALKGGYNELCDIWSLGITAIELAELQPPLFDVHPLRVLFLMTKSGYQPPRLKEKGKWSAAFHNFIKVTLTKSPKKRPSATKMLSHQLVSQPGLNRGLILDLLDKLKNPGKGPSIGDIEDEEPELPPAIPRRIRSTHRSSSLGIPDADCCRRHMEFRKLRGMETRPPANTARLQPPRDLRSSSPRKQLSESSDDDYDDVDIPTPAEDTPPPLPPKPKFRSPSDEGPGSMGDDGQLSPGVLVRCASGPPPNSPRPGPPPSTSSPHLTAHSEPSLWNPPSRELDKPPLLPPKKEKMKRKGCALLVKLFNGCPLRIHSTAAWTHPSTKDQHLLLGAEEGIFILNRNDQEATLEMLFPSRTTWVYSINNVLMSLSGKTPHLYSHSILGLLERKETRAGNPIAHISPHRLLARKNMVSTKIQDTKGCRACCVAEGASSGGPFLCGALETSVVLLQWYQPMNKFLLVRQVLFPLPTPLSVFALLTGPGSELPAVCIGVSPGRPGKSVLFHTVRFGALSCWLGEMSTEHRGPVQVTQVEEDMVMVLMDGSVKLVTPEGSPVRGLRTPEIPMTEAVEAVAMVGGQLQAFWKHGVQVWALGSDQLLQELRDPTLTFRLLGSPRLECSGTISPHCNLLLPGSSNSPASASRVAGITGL

In order of rising inhibition at 1 µM:
1. Cc1ccc(NC(=O)Nc2cccc(C(F)(F)F)c2)cc1 [UNC10225187A]  0%
2. COc1cccc(OC)c1C(=O)Nc1cccc(-c2nn3ccccc3c2-c2ccnc(Nc3cccc(F)c3)n2)c1 [UNC10225310A]  2%
3. O=c1cc(N2CCOCC2)nc2n(Cc3cccc(Cl)c3Cl)c(C3CC3)nn12 [UNC10225469A]  14%
4. CS(=O)(=O)Cc1ccc(Nc2nccc(-c3c(-c4cccc(NC(=O)C5CCCCC5)c4)nn4ncccc34)n2)cc1 [UNC10225159A]  14%
5. Cn1cc(-c2cnc(N)c3c(-c4ccc5c(c4)CCN5C(=O)Cc4ccccc4)csc23)cn1 [UNC10225012A]  94%

The molecules below were run against T3, HUNK (Homo sapiens, UniProt P57058) (assay: KINOMEscan competition binding). Conditions: read-out: %Inh HUNK.
T3 sequence (P57058 1-714): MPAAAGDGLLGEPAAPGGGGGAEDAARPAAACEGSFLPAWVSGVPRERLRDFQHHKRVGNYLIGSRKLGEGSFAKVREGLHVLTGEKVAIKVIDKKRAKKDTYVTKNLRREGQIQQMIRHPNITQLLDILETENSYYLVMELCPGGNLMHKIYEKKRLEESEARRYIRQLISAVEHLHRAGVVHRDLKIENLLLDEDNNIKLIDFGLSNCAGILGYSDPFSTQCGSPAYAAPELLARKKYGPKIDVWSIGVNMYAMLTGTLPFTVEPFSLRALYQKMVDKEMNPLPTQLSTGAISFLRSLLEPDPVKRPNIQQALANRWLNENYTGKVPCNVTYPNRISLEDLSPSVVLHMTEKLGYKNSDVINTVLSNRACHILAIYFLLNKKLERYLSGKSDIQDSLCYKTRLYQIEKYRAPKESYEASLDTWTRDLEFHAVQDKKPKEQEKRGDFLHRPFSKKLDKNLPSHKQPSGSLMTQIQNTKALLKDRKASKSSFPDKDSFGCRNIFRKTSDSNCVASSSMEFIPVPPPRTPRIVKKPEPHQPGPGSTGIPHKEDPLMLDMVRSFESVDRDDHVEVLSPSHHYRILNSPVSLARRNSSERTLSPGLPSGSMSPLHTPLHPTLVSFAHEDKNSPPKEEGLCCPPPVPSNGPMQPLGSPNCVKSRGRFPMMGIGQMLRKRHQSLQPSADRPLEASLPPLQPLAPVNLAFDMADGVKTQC

In order of falling inhibition at 1 µM:
1. COc1cccc(OC)c1C(=O)Nc1cccc(-c2nn3ccccc3c2-c2ccnc(Nc3cccc(F)c3)n2)c1 [UNC10225310A]  15%
2. CS(=O)(=O)Cc1ccc(Nc2nccc(-c3c(-c4cccc(NC(=O)C5CCCCC5)c4)nn4ncccc34)n2)cc1 [UNC10225159A]  7%
3. O=c1cc(N2CCOCC2)nc2n(Cc3cccc(Cl)c3Cl)c(C3CC3)nn12 [UNC10225469A]  0%
4. Cn1cc(-c2cnc(N)c3c(-c4ccc5c(c4)CCN5C(=O)Cc4ccccc4)csc23)cn1 [UNC10225012A]  0%
5. Cc1ccc(NC(=O)Nc2cccc(C(F)(F)F)c2)cc1 [UNC10225187A]  0%

Each molecule was assayed against JAK2(JH1domain-catalytic) (Homo sapiens, UniProt O60674) (assay: KINOMEscan competition binding). Conditions: read-out: %Inh JAK2(JH1domain-catalytic).
JAK2(JH1domain-catalytic), sequence (O60674 840-1132 limits assumed): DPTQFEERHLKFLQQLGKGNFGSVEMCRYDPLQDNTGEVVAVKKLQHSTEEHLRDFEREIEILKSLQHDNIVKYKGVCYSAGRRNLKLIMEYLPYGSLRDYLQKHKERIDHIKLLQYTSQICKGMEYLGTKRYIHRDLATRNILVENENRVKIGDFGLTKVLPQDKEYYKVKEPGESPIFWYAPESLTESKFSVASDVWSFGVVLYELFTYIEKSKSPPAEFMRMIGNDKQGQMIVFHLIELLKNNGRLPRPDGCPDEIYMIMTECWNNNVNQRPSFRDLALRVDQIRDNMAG

In order of falling inhibition at 1 µM:
1. Cn1cc(-c2cnc(N)c3c(-c4ccc5c(c4)CCN5C(=O)Cc4ccccc4)csc23)cn1 [UNC10225012A]  26%
2. CS(=O)(=O)Cc1ccc(Nc2nccc(-c3c(-c4cccc(NC(=O)C5CCCCC5)c4)nn4ncccc34)n2)cc1 [UNC10225159A]  16%
3. O=c1cc(N2CCOCC2)nc2n(Cc3cccc(Cl)c3Cl)c(C3CC3)nn12 [UNC10225469A]  6%
4. COc1cccc(OC)c1C(=O)Nc1cccc(-c2nn3ccccc3c2-c2ccnc(Nc3cccc(F)c3)n2)c1 [UNC10225310A]  3%
5. Cc1ccc(NC(=O)Nc2cccc(C(F)(F)F)c2)cc1 [UNC10225187A]  0%

The molecules below were run against LTK (Homo sapiens, UniProt P29376) (assay: KINOMEscan competition binding). Conditions: read-out: %Inh LTK.
LTK, sequence (P29376 17-864): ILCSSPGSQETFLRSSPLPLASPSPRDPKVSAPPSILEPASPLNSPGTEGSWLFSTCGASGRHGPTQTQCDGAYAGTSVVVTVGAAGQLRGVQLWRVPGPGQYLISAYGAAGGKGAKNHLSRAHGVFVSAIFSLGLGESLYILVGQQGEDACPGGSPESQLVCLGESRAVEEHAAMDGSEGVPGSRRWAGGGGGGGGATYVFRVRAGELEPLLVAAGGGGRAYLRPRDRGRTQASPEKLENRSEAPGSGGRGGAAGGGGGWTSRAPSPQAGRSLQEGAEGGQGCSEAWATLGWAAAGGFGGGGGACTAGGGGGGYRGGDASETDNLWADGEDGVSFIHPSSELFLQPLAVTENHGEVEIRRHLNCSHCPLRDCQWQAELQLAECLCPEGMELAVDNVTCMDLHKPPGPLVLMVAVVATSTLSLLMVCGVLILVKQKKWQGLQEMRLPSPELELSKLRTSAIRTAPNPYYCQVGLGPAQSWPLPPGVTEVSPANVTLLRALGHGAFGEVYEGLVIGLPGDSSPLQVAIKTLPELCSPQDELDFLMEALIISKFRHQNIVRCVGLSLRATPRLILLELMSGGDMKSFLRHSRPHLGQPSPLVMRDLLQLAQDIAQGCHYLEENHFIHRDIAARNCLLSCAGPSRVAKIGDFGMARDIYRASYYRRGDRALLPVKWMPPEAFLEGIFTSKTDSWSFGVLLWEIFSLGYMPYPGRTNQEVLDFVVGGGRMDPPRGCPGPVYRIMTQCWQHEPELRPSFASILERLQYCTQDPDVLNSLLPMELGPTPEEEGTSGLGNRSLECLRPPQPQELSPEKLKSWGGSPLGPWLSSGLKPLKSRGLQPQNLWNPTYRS

In order of rising inhibition at 1 µM:
1. O=c1cc(N2CCOCC2)nc2n(Cc3cccc(Cl)c3Cl)c(C3CC3)nn12 [UNC10225469A]  0%
2. Cn1cc(-c2cnc(N)c3c(-c4ccc5c(c4)CCN5C(=O)Cc4ccccc4)csc23)cn1 [UNC10225012A]  0%
3. CS(=O)(=O)Cc1ccc(Nc2nccc(-c3c(-c4cccc(NC(=O)C5CCCCC5)c4)nn4ncccc34)n2)cc1 [UNC10225159A]  0%
4. Cc1ccc(NC(=O)Nc2cccc(C(F)(F)F)c2)cc1 [UNC10225187A]  0%
5. COc1cccc(OC)c1C(=O)Nc1cccc(-c2nn3ccccc3c2-c2ccnc(Nc3cccc(F)c3)n2)c1 [UNC10225310A]  13%
